The text below walks through data of PMC12030165, “Bioactivity of Synthesized Trifluoromethyl Thioxanthone Analogues” (Pharmaceuticals, 2025).

Details of data set [1]: method as in PMID 35200663. The settings on record: cell line not given; cited from earlier work.
In the next data set the test system is HeLa cells. More on the design: method as in PMID 31200286. The settings on record: same cell line; read-out: IC50 against HeLa cells, positive control; cited from earlier work.
A short description of data set [2]: DPPH antioxidant activity assay. As for the experimental part:
To evaluate four synthesized compounds and Trolox (as a positive control), a 1 mg/mL concentration in methanol was first made from phenyl alcohol. The prepared solution was produced in concentrations of 1, 2, 3, 5, 7, 10, 20, 30, 50, and 80 µg/mL. The DPPH reagent was then diluted in 0.002% w/v methanol and combined in a […] ratio with the previously produced working concentrations. A blank solution of 100% methanol was used. All solutions were incubated at room temperature for 30 min in a dark environment. Their absorbance values were then determined using a UV-visible spectrophotometer set at a wavelength of 517 nm. The antioxidant capacity of each chemical compound fraction and Trolox were calculated using the following formula:% inhibition = ((Abs blank − Abs Sample)/Abs Blank) × 100 where:
Abs blank: Absorbance value of the control reaction containing all reagents except the synthesized compound.
Abs sample: The absorbance value of the synthesized compound [48].
A general note: DPPH is a stable violet radical that fades when it is reduced.

The structures appear in SMILES notation.

As for `C=C1C(=O)O[C@H]2/C=C(\C)CC/C=C(\C)CCC(=O)[C@]3(C)O[C@@H]3C[C@@H]12` [crassocolide N], the “cytotoxicity IC50” value in data set [1] is given as 4.7 µg/mL.

Take `COc1cccc2c1C(=O)c1c(O)c3c(c(O)c1C2=O)C[C@@](O)(C(=O)CO)C[C@@H]3O[C@H]1C[C@H](N)[C@H](O)[C@H](C)O1` [doxorubicin]: the 50% inhibitory concentration (IC50) (usually the point on the concentration scale where inhibition reaches its midpoint) in the data set with HeLa cells is 1100 ± 15 nM.

Turning to `Cc1c(C)c2c(c(C)c1O)CCC(C)(C(=O)O)O2` (stereo not drawn) [Trolox, reference compound], the “% inhibition of DPPH radical (radical scavenging)” value in data set [2] (1 µg/mL) is given as 30.5 ± 2.2%; in data set [2] (2 µg/mL), 23.6 ± 1.3%; in data set [2] (3 µg/mL), 61.4 ± 5.3%; in data set [2] (5 µg/mL) it was 90.7± 11.3%; in data set [2] (7 µg/mL) it was 95.3 ± 10.7%; in data set [2] (10 µg/mL), 95.9± 9.5%. The “% inhibition of DPPH radical (radical scavenging)” value in data set [2] (20 µg/mL) came to 96.7 ± 12.5%; in data set [2] (30 µg/mL), 97.2 ± 8.5%; in data set [2] (50 µg/mL), 98.1± 9.2%; in data set [2] (80 µg/mL), 98.9± 11.8%.
